Like-named read-outs stand apart in the source and are kept apart here.
Experiments:
[1] = target: T1, human cannabinoid CB1 receptor (Homo sapiens, UniProt P21554); test: CB1 receptor affinity, [3H]CP-55,940 radioligand displacement on CHO cell membrane preparations; assay type: binding
T1 construct: expressed in transfected cells; host or cells: Chinese hamster ovary (CHO) cells, stably transfected; membrane preparations
Description: CB1 receptor affinities can be determined using membrane preparations of Chinese hamster ovary (CHO) cells in which the human cannabinoid CB1 receptor is stably transfected (Biochem J. 1991, 279, 129-134) in conjunction with [3H]CP-55,940 as radioligand. After incubation of a freshly prepared cell membrane preparation with the [3H]-radioligand, with or without addition of test compound, separation of bound and free ligand is performed by filtration over glass fiber filters. Radioactivity on the filter is measured by liquid scintillation counting. The IC50 values can be determined from at least three independent measurements.
The CB1 IC50 values for tested compounds are as follows.

[2] = type 2 diabetes patients not on other anti-diabetic medications; six months of treatment; baseline value 7.9; placebo reduction 0.3%; cited from earlier work

T1 sequence (P21554 whole entry): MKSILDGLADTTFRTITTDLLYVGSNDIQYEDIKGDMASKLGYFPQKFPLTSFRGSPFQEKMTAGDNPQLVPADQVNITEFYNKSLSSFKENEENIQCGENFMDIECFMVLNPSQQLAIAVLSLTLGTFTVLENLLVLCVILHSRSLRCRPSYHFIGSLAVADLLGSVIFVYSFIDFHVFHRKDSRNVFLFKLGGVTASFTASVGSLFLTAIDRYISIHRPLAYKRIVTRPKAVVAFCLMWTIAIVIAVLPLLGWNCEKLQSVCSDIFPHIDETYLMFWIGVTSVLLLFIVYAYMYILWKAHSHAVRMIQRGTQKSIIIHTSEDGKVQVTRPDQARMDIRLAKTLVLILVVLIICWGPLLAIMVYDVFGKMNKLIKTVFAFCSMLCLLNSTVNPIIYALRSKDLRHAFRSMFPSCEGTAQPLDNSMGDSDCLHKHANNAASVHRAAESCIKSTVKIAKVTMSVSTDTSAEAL

Row | SMILES | IC50 ([1]; read-out: CB1 IC50) | other results
1 | NC(=O)C(CO)NC(=NS(=O)(=O)c1ccc(Cl)cc1)N1CC(c2ccccc2)C(c2ccc(Cl)cc2)=N1 (stereo not shown) [compound 2] | < 0.1 µM | 
2 | NS(=O)(=O)CCNC(=NS(=O)(=O)c1ccc(Cl)cc1)N1CC(c2ccccc2)C(c2ccc(Cl)cc2)=N1 (stereo not shown) [compound 3] | < 0.1 µM | 
3 | CC(C)C(NC(=NS(=O)(=O)c1cccc(C(N)=O)c1)N1CC(c2ccccc2)C(c2ccc(Cl)cc2)=N1)C(N)=O (stereo not shown) [compound 4] | 0.1 to 1 µM | 
4 | NC(CNC(=NS(=O)(=O)c1ccc(Cl)cc1)N1CC(c2ccccc2)C(c2ccc(Cl)cc2)=N1)=NO (stereo not shown) [compound 6] | < 0.1 µM | 
5 | CC(O)C(NC(=NS(=O)(=O)c1ccc(Cl)cc1)N1CC(c2ccccc2)C(c2ccc(Cl)cc2)=N1)C(N)=O (stereo not shown) [compound 7] | < 0.1 µM | 
6 | CC(C)C(NC(=NS(=O)(=O)c1cccc(C(=N)N)c1)N1CC(c2ccccc2)C(c2ccc(Cl)cc2)=N1)C(N)=O (stereo not shown) [compound 9] | 0.1 to 1 µM | 
7 | CC(O)C(NC(=NS(=O)(=O)c1ccc(Cl)cc1)N1CC(c2ccccc2)C(c2ccc(Cl)cc2)=N1)C(=O)NC(CO)C(N)=O (stereo not shown) [compound 11] | < 0.1 µM | 
8 | CC(O)C(NC(=NS(=O)(=O)c1cccc(C#N)c1)N1CC(c2ccccc2)C(c2ccc(Cl)cc2)=N1)C(N)=O (stereo not shown) [compound 12] | < 0.1 µM | 
9 | N#Cc1cccc(S(=O)(=O)N=C(NCCS(N)(=O)=O)N2CC(c3ccccc3)C(c3ccc(Cl)cc3)=N2)c1 (stereo not shown) [compound 15] | < 0.1 µM | 
10 | CC(NC(=NS(=O)(=O)c1cccc(C#N)c1)N1CC(c2ccccc2)C(c2ccc(Cl)cc2)=N1)C(N)=O (stereo not shown) [compound 16] | < 0.1 µM | 
11 | N#Cc1cccc(S(=O)(=O)N=C(NC2(C(N)=O)CCC2)N2CC(c3ccccc3)C(c3ccc(Cl)cc3)=N2)c1 (stereo not shown) [compound 17] | < 0.1 µM | 
12 | COc1cccc(S(=O)(=O)N=C(NC(C)C(N)=O)N2CC(c3ccccc3)C(c3ccc(Cl)cc3)=N2)c1 (stereo not shown) [compound 18] | < 0.1 µM | 
13 | COc1cccc(S(=O)(=O)N=C(NC(C(N)=O)C2CC2)N2CC(c3ccccc3)C(c3ccc(Cl)cc3)=N2)c1 (stereo not shown) [compound 21] | 0.1 to 1 µM | 
14 | NC(=O)Cc1csc(NC(=NS(=O)(=O)c2ccc(Cl)cc2)N2CC(c3ccccc3)C(c3ccc(Cl)cc3)=N2)n1 (stereo not shown) [compound 27] | 1 to 10 µM | 
15 | CCOP(=O)(OCC)C(C)NC(=NS(=O)(=O)c1ccc(Cl)cc1)N1CC(c2ccccc2)C(c2ccc(Cl)cc2)=N1 (stereo not shown) [compound 28] |  | IC50 [1]: 1 to 10 µM
16 | Cc1c(C(=O)NN2CCCCC2)nn(-c2ccc(Cl)cc2Cl)c1-c1ccc(Cl)cc1 [rimonabant] |  | HbA1c levels lowered [2]: 0.8%

Continued, in another order:

Row | IC50 ([1]; read-out: CB1 IC50) | SMILES | other results
17 | < 0.1 µM | COc1ccc(C2=NN(C(=NS(=O)(=O)c3ccc(Cl)cc3)NC(C)C(N)=O)CC2c2ccccc2)cc1 (stereo not shown) [compound 1] | 
18 | < 0.1 µM | CC(C)C(NC(=NS(=O)(=O)c1cccc(C#N)c1)N1CC(c2ccccc2)C(c2ccc(Cl)cc2)=N1)C(N)=O (stereo not shown) [compound 5] | 
19 | < 0.1 µM | NC(CCNC(=NS(=O)(=O)c1ccc(Cl)cc1)N1CC(c2ccccc2)C(c2ccc(Cl)cc2)=N1)=NO (stereo not shown) [compound 8] | 
20 | < 0.1 µM | COc1cccc(S(=O)(=O)N=C(NC2(C(N)=O)CCC2)N2CC(c3ccccc3)C(c3ccc(Cl)cc3)=N2)c1 (stereo not shown) [compound 10] | 
21 | < 0.1 µM | CC(O)C(NC(=NS(=O)(=O)c1cccc(C(=N)N)c1)N1CC(c2ccccc2)C(c2ccc(Cl)cc2)=N1)C(N)=O (stereo not shown) [compound 13] | 
22 | < 0.1 µM | COc1cccc(S(=O)(=O)N=C(NCCS(N)(=O)=O)N2CC(c3ccccc3)C(c3ccc(Cl)cc3)=N2)c1 (stereo not shown) [compound 14] | 
23 | < 0.1 µM | COc1ccc(C2=NN(C(=NS(=O)(=O)c3ccc(Cl)cc3)NCCS(N)(=O)=O)CC2c2ccccc2)cc1 (stereo not shown) [compound 20] | 
24 | < 0.1 µM | N#Cc1cccc(S(=O)(=O)N=C(NC(C(N)=O)C2CCC2)N2CC(c3ccccc3)C(c3ccc(Cl)cc3)=N2)c1 (stereo not shown) [compound 22] | 
25 | < 0.1 µM | NS(=O)(=O)CCNC(=O)CNC(=NS(=O)(=O)c1ccc(Cl)cc1)N1CC(c2ccccc2)C(c2ccc(Cl)cc2)=N1 (stereo not shown) [compound 23] | 
26 | < 0.1 µM | COC(=O)C=CCNC(=NS(=O)(=O)c1ccc(Cl)cc1)N1CC(c2ccccc2)C(c2ccc(Cl)cc2)=N1 (stereo not shown) [compound 24] | 
27 | < 0.1 µM | CC(O)C(NC(=NS(=O)(=O)c1ccc(Cl)cc1)N1CC(c2ccccc2)C(c2ccc(Cl)cc2)=N1)C(=O)NCCS(N)(=O)=O (stereo not shown) [compound 25] | 
28 | < 0.1 µM | NS(=O)(=O)CCNC(=O)C(CO)NC(=NS(=O)(=O)c1ccc(Cl)cc1)N1CC(c2ccccc2)C(c2ccc(Cl)cc2)=N1 (stereo not shown) [compound 26] | 

Reference: US8580768B2, “Cannabinoid receptor antagonists-inverse agonists useful for treating metabolic disorders, including obesity and diabetes” (Jenrin Discovery, Inc., priority 2010, dated 2013)
